Patent publication US9920061B2, “Imidazo[1,5-A]pyrimidinyl carboxamide compounds and their use in the treatment of medical disorders” (Lysosomal Therapeutics Inc., priority 2016, dated 2018)
In brackets after ≈: the same amount, converted by molar mass. Where two headings read alike, the source gives them in different places.

What was measured:
[1] = biological target: T1, glucocerebrosidase (Gcase) (Homo sapiens, UniProt P04062); assay: Glucocerebrosidase (Gcase) activation assay, 4-methylumbelliferyl-beta-D-glucopyranoside substrate, with saposin C; format: biochemical
T1 sequence (P04062 40-536): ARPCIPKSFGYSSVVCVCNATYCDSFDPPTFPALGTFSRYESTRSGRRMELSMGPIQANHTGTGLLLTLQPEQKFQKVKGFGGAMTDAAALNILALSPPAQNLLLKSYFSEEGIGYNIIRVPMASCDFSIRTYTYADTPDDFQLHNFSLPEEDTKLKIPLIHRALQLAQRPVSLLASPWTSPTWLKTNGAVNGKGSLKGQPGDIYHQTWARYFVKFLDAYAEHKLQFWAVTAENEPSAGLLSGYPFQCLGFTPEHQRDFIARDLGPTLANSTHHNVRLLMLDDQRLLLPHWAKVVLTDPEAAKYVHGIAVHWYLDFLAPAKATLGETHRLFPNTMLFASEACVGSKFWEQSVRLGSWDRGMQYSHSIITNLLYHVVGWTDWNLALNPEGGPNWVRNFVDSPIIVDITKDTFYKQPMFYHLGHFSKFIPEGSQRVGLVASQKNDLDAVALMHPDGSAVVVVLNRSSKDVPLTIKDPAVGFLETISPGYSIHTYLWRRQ
Summary of the method: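 Micellar buffer (176 mM K2HPO4/50 mM citric acid, pH 4.7; 0.32 mM triton, 0.37 mol % PS) holding 10 nM GCase and 100 nM saposin C, pre-incubated with compound 30 min at room temperature. Substrate final 2 mM before mixing; 15 min reaction, glycine pH 12.5 stop, fluorescence 365/440 nm. Screened at 1.0 and 0.1 μM; 8-point, 3-fold dose response.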

[2] = Compound solubility in water; format: physicochemical
[3] = 0.1 μM test compound, read-out: Percent Gcase Activation 0.1 μM Test Compound
[4] = 1 μM test compound, read-out: Percent Gcase Activation 1 μM Test Compound
[5] = test compound at 0.1 μM, read-out: Percent Gcase Activation, 0.1 μM Test Compound
[6] = test compound at 1.0 μM, read-out: Percent Gcase Activation, 1 μM Test Compound

Structure (SMILES) | activation at 0.1 µM [1, 3] [%] | activation at 1 µM [1, 4] [%] | solubility [2] [µg/mL] | activation at 0.1 µM [1, 5] [%] | activation at 1 µM [1, 6] [%] | solubility ([2]; in water) [µg/mL]
COc1cc(-c2cc(C)n3cnc(C(=O)NC(C4CC4)C4CC4)c3n2)ccc1Cl [III-175] | 10 to 20 | > 60 | 0.2 (≈ 0.487 µM) | – | – | –
Cc1cc(C)n2cnc(C(=O)NC(CC(C)C)C3CC3)c2n1 (stereo not drawn) [III-11] | 10 to 20 | > 60 | 32.6 (≈ 109 µM) | – | – | –
Cc1cc(-c2ccc(F)cc2)nc2c(C(=O)NC(C)(C)C3CC3)ncn12 [III-26] | > 20 | > 60 | 1.6 (≈ 4.54 µM) | – | – | –
Cc1cc(Oc2cccnc2)nc2c(C(=O)N[C@@H](C)C3CC3)ncn12 [III-122] | < 10 | < 30 | 32.8 (≈ 97.2 µM) | – | – | –
COCc1cc(-c2cc(F)cc(F)c2)nc2c(C(=O)N[C@@H](C)C3CC3)ncn12 [III-116] | 10 to 20 | > 60 | 0.6 (≈ 1.55 µM) | – | – | –
Cc1cc(-c2cc(C#N)co2)nc2c(C(=O)NC(C3CC3)C(F)(F)F)ncn12 (stereo not drawn) [IV-81] | – | – | – | 10 to 20 | > 60 | 1 (≈ 2.57 µM)
Cc1cc(-c2cnsc2)nc2c(C(=O)NC(C)(C)C3CC3)ncn12 [III-59] | 10 to 20 | > 60 | 2.1 (≈ 6.15 µM) | – | – | –
CCc1cc(-c2ccns2)nc2c(C(=O)NC(C3CC3)C(F)(F)F)ncn12 (stereo not drawn) [III-165] | > 20 | > 60 | 4.7 (≈ 11.9 µM) | – | – | –
Cc1cc(-c2cscc2C#N)nc2c(C(=O)NC(C3CC3)C(F)(F)F)ncn12 (stereo not drawn) [IV-32] | – | – | – | > 20 | > 60 | 0.6 (≈ 1.48 µM)
CCc1cc(-c2ccc(F)cc2)nc2c(C(=O)N[C@@H](C)C3CC3)ncn12 [III-33] | > 20 | > 60 | 10.5 (≈ 29.8 µM) | – | – | –
Cc1cc(-c2ccccn2)nc2c(C(=O)NC(C)(C)C3CC3)ncn12 [III-42] | < 10 | > 60 | 4 (≈ 11.9 µM) | – | – | –
Cc1cc(-c2ccccc2C#N)nc2c(C(=O)NC(C)(C)C)ncn12 [IV-109] | – | – | – | < 10 | 30 to 60 | 2.5 (≈ 7.5 µM)
Cc1cc(-c2cccnc2)nc2c(C(=O)NC(C)(C)C3CC3)ncn12 [III-41] | < 10 | 30 to 60 | 27.1 (≈ 80.8 µM) | – | – | –
C[C@H](NC(=O)c1ncn2cc(-c3ccc(F)cc3)cnc12)C1CC1 [III-37] | < 10 | < 30 | 2.2 (≈ 6.78 µM) | – | – | –
Cc1cc(-c2ccns2)nc2c(C(=O)NC(C)(C)C3CC3)ncn12 [III-60] | 10 to 20 | > 60 | 4 (≈ 11.7 µM) | – | – | –
Cc1cc(-c2cc(F)ccc2C#N)nc2c(C(=O)NC(C3CC3)C(F)(F)F)ncn12 (stereo not drawn) [IV-108] | – | – | – | > 20 | > 60 | 0.7 (≈ 1.68 µM)
Cc1cc(-c2nc(Cl)cs2)nc2c(C(=O)NC(C)(C)C3CC3)ncn12 [III-140] | < 10 | < 30 | 0.8 (≈ 2.13 µM) | – | – | –
Cc1cc(-c2cn(C)nn2)nc2c(C(=O)NC(C)(C)C3CC3)ncn12 [III-82] | < 10 | < 30 | 22.8 (≈ 67.2 µM) | – | – | –
Cc1cc(Oc2ccncc2)nc2c(C(=O)N[C@@H](C)C3CC3)ncn12 [III-123] | < 10 | < 30 | 29.6 (≈ 87.7 µM) | – | – | –
CCc1cc(Oc2ccc(F)cc2)nc2c(C(=O)N[C@@H](C)C3CC3)ncn12 [III-166] | < 10 | 30 to 60 | 10.8 (≈ 29.3 µM) | – | – | –
Cc1cc(C)n2cnc(C(=O)N[C@@H]3[C@@H]4CC[C@H]3C[C@@H](OC(C)(C)C)C4)c2n1 [IV-11] | – | – | – | > 20 | > 60 | 4.9 (≈ 13.2 µM)
Cc1cc(-c2ccc3c(c2)OCO3)nc2c(C(=O)N[C@@H](C)C3CC3)ncn12 [IV-28] | – | – | – | > 20 | > 60 | 1.1 (≈ 3.02 µM)
Cc1cc(C#N)c(-c2cc(C)n3cnc(C(=O)NC(C4CC4)C(F)(F)F)c3n2)o1 (stereo not drawn) [IV-92] | – | – | – | > 20 | > 60 | 0.3 (≈ 0.744 µM)

Second part, the compound after the results:

activation at 0.1 µM [1, 3] [%] | activation at 1 µM [1, 4] [%] | solubility [2] [µg/mL] | activation at 0.1 µM [1, 5] [%] | activation at 1 µM [1, 6] [%] | solubility ([2]; in water) [µg/mL] | Structure (SMILES)
– | – | – | 10 to 20 | > 60 | 0.7 (≈ 1.96 µM) | COc1ccc(F)c(-c2cc(C)n3cnc(C(=O)NC(C)(C)C)c3n2)c1 [IV-103]
> 20 | > 60 | 1.1 (≈ 2.78 µM) | – | – | – | CCOc1cc(C)n2cnc(C(=O)NC(c3ccc(F)cc3)C(F)(F)F)c2n1 (stereo not drawn) [III-21]
> 20 | > 60 | 0.9 (≈ 2.46 µM) | – | – | – | C#CC(C)(C)NC(=O)c1ncn2c(C)cc(-c3cc(F)cc(OC)c3)nc12 [III-187]
– | – | – | > 20 | > 60 | 1.1 (≈ 2.65 µM) | Cc1cc(-c2cccc3ncoc23)nc2c(C(=O)N[C@H](C3CC3)C(F)(F)F)ncn12 [IV-17]
> 20 | > 60 | 0.6 (≈ 1.58 µM) | – | – | – | Cc1cc(-c2cccc(F)c2)nc2c(C(=O)NC(C)(C)C(F)(F)F)ncn12 [III-183]
– | – | – | > 20 | > 60 | 1.7 (≈ 4.49 µM) | COc1cccc(-c2cc(C)n3cnc(C(=O)N[C@@H](C)C(F)(F)F)c3n2)c1 [IV-22]
> 20 | > 60 | 8.9 (≈ 21.4 µM) | – | – | – | Cc1cc(-c2cccc3ncoc23)nc2c(C(=O)NC(C3CC3)C(F)(F)F)ncn12 (stereo not drawn) [III-160]
> 20 | > 60 | 5.9 (≈ 15.8 µM) | – | – | – | C#Cc1cccc([C@H](NC(=O)c2ncn3c(C)cc(C)nc23)C(F)(F)F)c1 [III-5]
> 20 | > 60 | 0.2 (≈ 0.542 µM) | – | – | – | Cc1cc(-c2cccc(Cl)c2)nc2c(C(=O)NC(C)(C)C3CC3)ncn12 [III-162]
10 to 20 | > 60 | 4.7 (≈ 12.5 µM) | – | – | – | Cc1cc(-c2ccccn2)nc2c(C(=O)NC(C3CC3)C(F)(F)F)ncn12 (stereo not drawn) [III-72]
– | – | – | > 20 | > 60 | 1.1 (≈ 2.65 µM) | Cc1cc(-c2ccc3ocnc3c2)nc2c(C(=O)NC(C3CC3)C(F)(F)F)ncn12 (stereo not drawn) [IV-72]
– | – | – | > 20 | > 60 | 2.1 (≈ 5.39 µM) | Cc1cc(-c2ccc3ocnc3c2)nc2c(C(=O)NC(C)C(F)(F)F)ncn12 (stereo not drawn) [IV-73]
– | – | – | > 20 | > 60 | 0.5 (≈ 1.2 µM) | Cc1cc(-c2cccc(C#N)c2F)nc2c(C(=O)NC(C3CC3)C(F)(F)F)ncn12 (stereo not drawn) [IV-36]
> 20 | > 60 | 33.3 (≈ 98.4 µM) | – | – | – | Cc1cc(-c2cccc(F)c2)nc2c(C(=O)NC(C)C3CC3)ncn12 (stereo not drawn) [III-50]
– | – | – | < 10 | 30 to 60 | 13.5 (≈ 31.4 µM) | COc1c(C#N)cccc1-c1cc(C)n2cnc(C(=O)NC(C3CC3)C(F)(F)F)c2n1 (stereo not drawn) [IV-67]
10 to 20 | > 60 | 8.4 (≈ 24.8 µM) | – | – | – | Cc1cc(-c2cccc(F)c2)nc2c(C(=O)N[C@H](C)C3CC3)ncn12 [III-94]
> 20 | > 60 | 3.7 (≈ 9.32 µM) | – | – | – | Cc1cc(-c2cccc(Cl)c2)nc2c(C(=O)NC(C)(C)C(F)(F)F)ncn12 [III-185]
10 to 20 | > 60 | 8.7 (≈ 22.8 µM) | – | – | – | COc1cc(C)n2cnc(C(=O)NC(c3ccc(F)cc3)C(F)(F)F)c2n1 (stereo not drawn) [III-19]
